The values below come from patent publication US8592419B2, “Ceramides and apoptosis-signaling ligand” (MUSC Foundation for Research Development, priority 2004, dated 2013).

The structures appear in SMILES notation. Where a SMILES comes first, the peptide text is derived from it. [ ]: non-standard residue; d: D form. The star is where a group is joined. Sta = CC(C)C[C@H](N)[C@@H](O)CC(=O)O; Isovaleryl = CC(C)CC(=O)*; Cbz = O=C(OCc1ccccc1)*; CH2F = FC*

Assay [1] relates to lysosomes of DU145 cells. The assay is described as follows: Lysosomal stability assay (LysoTracker Red). It is filed as cell-based, human. To be noted: DU145 cells, 1 hour; LCL204 10 μM, C6-ceramide 30 μM, B13 20 μM. As to the method:
Lysosoinal stability assay. Lysosomal stability was measured using the fluorescent dye LysoTracker Red (LTR). Cells were seeded overnight in 60 mm plates. The next day, medium was removed and replaced with medium containing 200 nM LTR. Cells were loaded with LTR for 30 minutes at 37° C. LTR was removed and cells were washed once with PBS, then medium containing the treatment was added for the indicated time. After treatment, cells were lifted with trypsin, washed once in PBS, and resuspended in 0.5 mL growth medium. LTR fluorescence was measured using FACS analysis (564-606 nm) as above. A decrease in fluorescence intensity corresponded to an increase in lysosomal pH, and a minimum of 10,000 events were scored for each sample.

The test system of assay [2] is PUMA. The assay is described as follows: Immunoblot of PUMA. In kind it is cell-based, human. As to conditions: PPC-1/pcDNA3 cells, 40 μM SP600125 with LCL204. As to the method:
(§1) Immunoblot analysis. Cells were seeded in 60mm plates as described above and treated accordingly. Cells were lifted by gently scraping the plates, washed once with ice cold PBS and then lysed in lysis buffer (PBS, 1% Triton X-100, 10% glycerol) containing protease inhibitors pepstatin A (0.5 μg/ml), leupeptin (0.5 μg/ml), aprotinin (5 μg/ml), and PMSF (100 μg/ml) for 10 minutes on ice. Insoluble material was removed by centrifugation at 14,000 rpm for 15 minutes at 4° C. The supernatants were then supplemented with SDS at a final concentration of 2% and stored at −80° C. Protein concentrations were determined using the DC Protein Assay (BioRad Laboratories; Hercules, CA, USA) according to the manufacturer's instructions. 50 μg of protein per sample (unless otherwise indicated) were separated on NuPAGE 4-12% Bis-Tris gels (Invitrogen; Carlsbad, CA, USA) and transferred to nitrocellulose membranes (BioRad). Following transfer, membranes were blocked for 1 hour at room temperature in Tris-buffered saline (TBS) containing 0.1% Tween-20 and 5% nonfat dry milk and incubated overnight at 4° C. with primary antibody at a dilution of 1:2,000(actin), 1:1,000(cytochrome c, COX IV, Bax, Bak, p53, p38, P-p38), 1:500(P-JNK, JNK), 1:250 (AC, p73), or 1:400(LAMP-1, cathepsin B). Overnight incubations were performed in 5% milk in TBS-Tween. Following overnight incubation, membranes were washed three times for 10 minutes each in TBS-Tween and incubated for 1 hour at room temperature with secondary antibody in 5% milk TBS-Tween at a dilution 1:5,000 (goat anti-mouse IgG) or 1:50,000 (goat anti-rabbit). Membranes were then washed three times more and incubated for 5 minutes at room temperature with Super Signal HRP substrate (Pierce Biotechnology Inc.; Rockford, IL, USA).
(A western blot detects proteins with antibodies after separation by electrophoresis.)

The test system of assay [3] is DU145 cells. Kind of assay: MTS cell viability assay in DU145 cells. In kind it is cell-based, human. To be noted: for reproduction of the apoptotic consequences of LCL204-induced lysosomal rupture: agents that strictly alter lysosomal pH. As to the method:
MTS cytotoxicity assays for LCL204 treatments. Cell viability was determined using the CellTiter 96 AQueous One Solution Cell Proliferation Assay (Promega; Madison, Wis., USA). 1×10^4 cells per well were seeded in 96-well plates overnight. The next day media was removed and replaced with either 100 μl media with vehicle control or media containing LCL204 at desired concentrations. Assays were carried out according to manufacturer's instruction as previously described (60). For experiments using enzyme inhibitors and LCL204, media was removed and replaced with 50 μl media containing vehicle only or indicated inhibitor. Cells were pretreated 1 hour at 37° C. before adding 50 μl media containing vehicle, inhibitor only, LCL204 only (2× concentration), or a combination. The remainder of the assay was carried out as described above.
For orientation: Tetrazolium dyes change colour on reduction, which living cells bring about.

In assay [4] the target is T1, acid ceramidase (AC) (Homo sapiens, UniProt Q13510).
T1 construct: endogenous in cells
T1 sequence (Q13510 22-395): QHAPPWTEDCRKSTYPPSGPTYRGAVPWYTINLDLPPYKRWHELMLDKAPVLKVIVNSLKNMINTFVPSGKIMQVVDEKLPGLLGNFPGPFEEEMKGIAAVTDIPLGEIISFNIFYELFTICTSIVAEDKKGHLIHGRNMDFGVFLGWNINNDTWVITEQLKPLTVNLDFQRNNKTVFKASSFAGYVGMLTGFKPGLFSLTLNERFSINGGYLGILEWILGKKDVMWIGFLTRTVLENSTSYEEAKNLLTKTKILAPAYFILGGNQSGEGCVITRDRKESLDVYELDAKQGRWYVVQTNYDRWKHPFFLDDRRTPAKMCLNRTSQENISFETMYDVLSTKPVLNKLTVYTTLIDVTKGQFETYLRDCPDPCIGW
The assay is described as follows: Immunoblot of acid ceramidase protein. It is filed as cell-based. To be noted: DU145 cells, one hour pretreatment, then LCL204 10 μM 6 hours. As to the method: as §1

In assay [5] the test system is DU145 cells. Kind of assay: Effect of doxorubicin on apoptotic resistance of DU145 cells. In kind it is cell-based, human. As to conditions: 0.2 μg/ml. An excerpt:
The viruses described in Rubinchik et al. had been used under in vivo conditions to treat prostate cancer xenografts. […]. […] One of the limitations in PCa gene therapy is delivery of the therapeutic gene to every cell in the tumor. One way to overcome this is to amplify the response to the delivered gene by taking advantage of the bystander effect. For example, virally-expressed wild-type p53 is capable of inducing apoptosis in many types of cancer cells and is reported to have bystander activity by inducing localized FasL expression which recruits neutrophils infiltration that is believed to play a critical role in the bystander mechanism. In practice, the bystander effect, if activated , will result in regression of a solid tumor in spite of the physician's inability to deliver, by virus or liposome, a therapeutic gene to every cell. […] In the DU145 model of prostate cancer, the inventors determined that resistance to the induction of apoptosis through the Fas receptor signaling pathway is due to overexpression of apoptotic resistance genes including cFLIPs (Hyer et al., Cancer Biology and Therapy 1(4): 405-410, 2002). […] However, expression of apoptotic resistance genes in some cancers, including in the DU145 model, make the cells relatively insensitive to vesicle-mediated bystander activity. To overcome this, a number of different chemotherapeutic drugs and other small molecules were examined for their effect on apoptotic resistance mechanisms. […] This decrease in protein levels may be due to proteasomal degradation or a translational block. Under these conditions, a 20% increase in sensitivity of apoptotic vesicles is observed with 0.2 μg/ml doxorubicin. […]

The target in assay [6] is T2, ASMase (Homo sapiens, UniProt P17405).
T2 construct: DU145 cells were lysed in 50 mM Tris (pH=7.4) using a probe sonicator; endogenous in cells; host or cells: DU145 (lysate of treated cells)
The assay is described as follows: Acid sphingomyelinase activity assay. In kind it is cell-based. As to conditions: DU145 cells, 2-hour LCL204 treatment. How it is done: Acid Sphingomyelinase Activity Assay. DU145 cells were lysed in 50 mM Tris (pH=7.4) using a probe sonicator. Cellular debris was removed after centrifugation at 3000×g for 10 minutes. Proteins (50 μg) were adjusted to a total volume of 100 μl and the reaction was started by adding 100 μl of the reaction mixture containing 1 mM EDTA, 250 mM sodium acetate (pH 5.0), 100 μM [choline-methyl-^14C] sphingomyelin and 0.1% Triton X. After incubation at 37° C. for one hour, the reaction was stopped by adding 1.5 ml of chloroform/methanol (2:1) and then 200 μl of water. Phases were separated by centrifugation at 2000×g for 5 minutes. Quantitation of the amount of released radioactive phosphocholine was determined by subjecting 400 μl of the upper phase to scintillation counting.

For assay [7], the system named is L929 cells. The assay is described as follows: TNFα-induced PGE2 release. As to conditions: TNFα-treated L929 mouse fibroblast cells, preliminary data. In kind it is cell-based. An excerpt: Interleukin-1 is a major inducer of inflammation and TNF is an important regulator of the reaction. Both cytokines can activate ceramidase, and thus inhibiting the activity of ceramidase can result in an anti-inflammatory effect. This may involve the prevention of the formation of sphingosine and sphingosine phosphate which have pro-inflammatory effects. Also, inhibition of ceramidase may prevent the hyperproliferation of immune cells that are important for inflammation. […] The release of PGE2 is also shown to be inhibited by D-(N-myristolyamino)-1-phenyl-1-propanol), D-MAPP, which is an inhibitor of one of the ceramidase. This observation may be important for inhibiting inflammatory reactions that occur in conditions, such as but not limited to rheumatoid arthritis. Thus, it is possible to treat or prevent inflammation by regulating the level of cellular ceramide using the method of the invention. As discussed above, ceramide level can be increased by administering compounds of the present invention that can inhibit mitochondrial ceramidase.

Assay [8] has as its system DU145 cells. The assay is described as follows: Cell death by MTS assay, ceramide analog combined with AdGFPFasL virus. In kind it is cell-based, human. How it is done:
LCL102, a ceramidase inhibitor, which acts to increasing intracellular ceramide levels by […], were tested in this system. This molecule was highly efficient at activating cell death in DU145 cells at nontoxic doses if combined with AdGFPFasL virus at MOIs achievable in vivo. DU145 cells growing in 96 well plates at 1×10^4 cells/well are treated with either media alone or LCL102 at 2 uM for 48 hours followed by AdGFPFasL for 24 hours at the MOI (5-80). Cell death is assayed by the MTS assay. At 2 uM LCL102 and 5MOI of virus, cell death is amplified 4-fold compared to LCL102 alone (FIG. 14).

T2 sequence (P17405 47-631): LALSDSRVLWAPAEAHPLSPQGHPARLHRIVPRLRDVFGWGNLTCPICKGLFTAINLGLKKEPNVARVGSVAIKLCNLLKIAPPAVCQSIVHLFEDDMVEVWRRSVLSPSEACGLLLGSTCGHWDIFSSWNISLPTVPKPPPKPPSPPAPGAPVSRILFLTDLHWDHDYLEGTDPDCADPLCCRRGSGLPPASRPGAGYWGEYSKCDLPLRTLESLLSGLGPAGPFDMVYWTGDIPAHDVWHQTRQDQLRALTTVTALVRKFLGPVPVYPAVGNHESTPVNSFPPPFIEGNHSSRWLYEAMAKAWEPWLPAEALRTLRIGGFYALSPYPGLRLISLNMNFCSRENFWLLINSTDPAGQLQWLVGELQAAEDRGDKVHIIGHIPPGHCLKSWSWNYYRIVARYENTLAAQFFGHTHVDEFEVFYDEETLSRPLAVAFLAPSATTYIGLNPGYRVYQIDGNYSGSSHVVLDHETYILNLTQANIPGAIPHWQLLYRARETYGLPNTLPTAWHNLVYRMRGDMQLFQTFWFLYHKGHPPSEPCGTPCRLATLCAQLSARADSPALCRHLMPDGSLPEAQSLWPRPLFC

Take `CCCCCCCCCCCCC/C=C/[C@@H](O)[C@H](CO)NC(=O)CCCCC` [C6-ceramide, reference compound]: the “shift in LTR fluorescence (rise in lysosomal pH)” value in assay [1] is reported as “did not have this effect”.

For the compound `Oc1c2ccccc2c2c3c(cccc13)N=N2` [SP600125, reference compound], the “time until which LCL204-induced PUMA induction was delayed” value in assay [2] was “approximately 6 hours”.

On to `CO/C1=C\C(C)=C\[C@@H](C)[C@@H](O)[C@@H](C)C/C(C)=C/C=C/[C@H](OC)[C@@H]([C@@H](C)[C@@H](O)[C@H](C)[C@@]2(O)C[C@@H](O)[C@H](C)[C@@H](C(C)C)O2)OC1=O` [bafilomycin A1], for which the “reproduction of the apoptotic consequences of LCL204-induced lysosomal rupture” value in assay [3] is reported as “could not be reproduced”.

Regarding `CC(C)C[C@@H](C=O)NC(=O)[C@H](CC(C)C)NC(=O)[C@H](CC(C)C)NC(=O)OCc1ccccc1` [MG132] (Cbz-Leu-Leu-Leu-aldehyde), the “effect of protease inhibitor pretreatment on LCL204-induced AC protein loss” value in assay [4] was “blocked AC degradation”.

In the case of `COc1cccc2c1C(=O)c1c(O)c3c(c(O)c1C2=O)C[C@@](O)(C(=O)CO)C[C@@H]3O[C@H]1C[C@H](N)[C@H](O)[C@H](C)O1` [Doxorubicin], in assay [5], the cFLIP protein expression result is on record as “decreases expression of cFLIP protein”, the “increase in sensitivity of apoptotic vesicles” value amounted to 20% and the “toxicity to DU145 cells” value was “toxic to DU145 cells at 48-72 hours”.

In the case of `COC(=O)C[C@H](NC(=O)[C@H](C)NC(=O)[C@@H](NC(=O)OCc1ccccc1)C(C)C)C(=O)CF` [zVAD-fmk] (Cbz-Val-Ala-Asp(OMe)-CH2F), the “LCL204-mediated cell death after pre-treatment with caspase inhibitor” value in assay [3] (pre-treated one hour, then LCL204 24 hours, especially below 15 μM LCL204) is “cell death was substantially reduced”. In addition, in assay [4], the “effect of protease inhibitor pretreatment on LCL204-induced AC protein loss” value is given as “blocked AC degradation”.

In the case of `Cl.N` [NH4Cl], the “reproduction of the apoptotic consequences of LCL204-induced lysosomal rupture” value in assay [3] was “could not be reproduced”.

For the compound `CCCNC(=O)[C@H]1O[C@@H]1C(=O)N[C@H](C(=O)N1CCC[C@H]1C(=O)OC)[C@@H](C)CC` [CA074Me, reference compound], in assay [6], the “effect on LCL204-induced loss of ASMase activity” value is on record as “loss of activity was blocked”. The “effect of protease inhibitor pretreatment on LCL204-induced AC protein loss” value in assay [4] is reported as “blocked AC degradation”.

Take `CCCCCCCCCCCCCC(=O)NC(C)C(O)c1ccccc1` [D-MAPP]: in assay [7], the “release of PGE2” value is reported as “inhibited”.

For `CCCCCCCCCCCCCC(=O)N[C@H](CO)[C@H](O)c1ccc([N+](=O)[O-])cc1` [B13, reference compound], the “shift in LTR fluorescence (rise in lysosomal pH)” value in assay [1] is recorded as “did not have this effect”.

For `CC(C)CC(=O)N[C@H](C(=O)N[C@H](C(=O)N[C@@H](CC(C)C)[C@@H](O)CC(=O)N[C@@H](C)C(=O)N[C@@H](CC(C)C)[C@@H](O)CC(=O)O)C(C)C)C(C)C` [pepstatin A] (Isovaleryl-VV[Sta]A[Sta]-OH), in assay [4], the “effect of protease inhibitor pretreatment on LCL204-induced AC protein loss” value is reported as “no effect”.

Turning to `CCCCCCCCCCCCCCN[C@H](CO)[C@H](O)c1ccc([N+](=O)[O-])cc1` [LCL102, (1R,2R)-2-N-Tetradecylamino-1-(4-nitro-phenyl)-1,3-propandiol], the “amplification of cell death compared to LCL102 alone” value in assay [8] (2 uM for 48 hours, then AdGFPFasL 5MOI for 24 hours) is reported as 4 fold. Besides, the “increase of the ability of AdGFPFasL to kill tumor cells” value in assay [8] (in vitro, subtoxic doses) is reported as “as much as ten-fold”.
